Test results as given in patent publication US20260125382A1, “COMPOUNDS FOR INHIBITING OR DEGRADING CDK2 AND/OR CDK9 AND MEDICINAL USE THEREOF” (KOREA RESEARCH INSTITUTE OF CHEMICAL TECHNOLOGY, priority 2022, published 2026).

What was measured:
CDK2 = target: T1, CDK2 (Homo sapiens, UniProt P24941); test: CDK protein degradation activity (Western blotting), CDK2; format: cell-based; conditions: MDA-MB-231 cells, 16 hours, Western blot
T1 construct: endogenous in cells; host or cells: MDA-MB-231
Protocol: (§1) In order to evaluate the CDK protein degradation activity of the compounds according to the present invention, the following experiment was conducted.
(§2) MDA-MB-231 cells were seeded at 5×10^5 cells per well in a 6-well plate. The next day, the compounds were treated in each well to achieve final concentrations of 100 nM, 1 μM, and 10 μM. For the control group, an equal amount of DMSO was treated in the well as the compound. After 16 hours of treatment, cells were collected, and cell lysates were prepared using Triton X-100 lysis buffer (50 mM HEPES, pH 7.5, 40 mM NaCl, 1% Triton X-100, 1 mM EDTA, 1 mM EGTA, 10 mM pyrophosphate, 10 mM β-glycerophosphate, 50 mM NaF, 1 mM NaVO4, protease inhibitor). Cell lysates were quantified and separated by size using sodium dodecyl sulfate-polyacrylamide gel electrophoresis (SDS-PAGE). Western blotting was then performed using antibodies that recognize CDK2, CDK9, and tubulin, respectively. The results obtained by Western blotting were quantitatively analyzed using the ImageJ program, and representative images according to the experimental results are shown in FIG. 1.

CDK9 = target: T2, CDK9 (Homo sapiens, UniProt P50750); test: CDK protein degradation activity (Western blotting), CDK9; format: cell-based; conditions: MDA-MB-231 cells, 16 hours, Western blot
T2 construct: endogenous in cells; host or cells: MDA-MB-231
T2 sequence (P50750 whole entry): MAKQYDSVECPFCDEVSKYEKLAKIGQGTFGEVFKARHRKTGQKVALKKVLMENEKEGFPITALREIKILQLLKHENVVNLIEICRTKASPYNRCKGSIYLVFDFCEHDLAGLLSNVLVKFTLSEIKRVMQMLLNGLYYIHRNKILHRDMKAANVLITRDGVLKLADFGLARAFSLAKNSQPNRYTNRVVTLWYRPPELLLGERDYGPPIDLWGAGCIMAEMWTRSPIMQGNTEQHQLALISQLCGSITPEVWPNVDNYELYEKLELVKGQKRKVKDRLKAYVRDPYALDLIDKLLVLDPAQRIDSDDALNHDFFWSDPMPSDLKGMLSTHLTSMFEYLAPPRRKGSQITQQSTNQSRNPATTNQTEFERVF
Protocol: as §1, §2

Row | SMILES | Enzyme degradation CDK2 (% remaining) @ 0.1 μM (CDK2) | Enzyme degradation CDK2 (% remaining) @ 1 μM (CDK2) | Enzyme degradation CDK2 (% remaining) @ 10 μM (CDK2) | Enzyme degradation CDK9 (% remaining) @ 0.1 μM (CDK9) | Enzyme degradation CDK9 (% remaining) @ 1 μM (CDK9) | Enzyme degradation CDK9 (% remaining) @ 10 μM (CDK9)
1 | Cc1cccc(C(=O)N[C@H]2C[C@@H](n3cnc4c(NC5CCN(C(=O)CC6CCN(C(=O)COc7cccc8c7C(=O)N([C@H]7CCC(=O)NC7=O)C8=O)CC6)CC5)ncnc43)C2)n1 [Compound 50, N-((1s,3s)-3-(6-((1-(2-(1-(2-((2-(2,6-dioxopiperidin-3-yl)-1,3-dioxoisoindolin-4-yl)oxy)acetyl)piperidin-4-yl)acetyl)piperidin-4-yl)amino)-9H-purin-9-yl)cyclobutyl)-6-methylpicolinamide] | 80% | 40% | 10% | 90% | 60% | 20%
2 | Cc1cccc(C(=O)NC2CC(n3cnc4c(NC5CCN(C(=O)CC6CCN(C(=O)CNc7ccc8c(c7)C(=O)N([C@H]7CCC(=O)NC7=O)C8=O)CC6)CC5)ncnc43)C2)n1 (stereo partly drawn) [Compound 51, N-((1s,3s)-3-(6-((1-(2-(1-((2-(2,6-dioxopiperidin-3-yl)-1,3-dioxoisoindolin-5-yl)glycyl)piperidin-4-yl)acetyl)piperidin-4-yl)amino)-9H-purin-9-yl)cyclobutyl)-6-methylpicolinamide] | 70% | 20% | 20% | 70% | 0% | 0%
3 | Cc1cccc(C(=O)NC2CC(n3cnc4c(NC5CCN(C(=O)CC6CCN(C(=O)CNc7cccc8c7C(=O)N([C@H]7CCC(=O)NC7=O)C8=O)CC6)CC5)ncnc43)C2)n1 (stereo partly drawn) [Compound 52, N-((1s,3s)-3-(6-((1-(2-(1-((2-(2,6-dioxopiperidin-3-yl)-1,3-dioxoisoindolin-4-yl)glycyl)piperidin-4-yl)acetyl)piperidin-4-yl)amino)-9H-purin-9-yl)cyclobutyl)-6-methylpicolinamide] | 40% | 40% | 50% | 70% | 30% | 10%
4 | Cc1cccc(C(=O)NC2CC(n3cnc4c(NC5CCN(C(=O)CC6CCN(c7ccc8c(c7)C(=O)N([C@H]7CCC(=O)NC7=O)C8=O)CC6)CC5)ncnc43)C2)n1 (stereo partly drawn) [Compound 53, N-((1s,3s)-3-(6-((1-(2-(1-(2-(2,6-dioxopiperidin-3-yl)-1,3-dioxoisoindolin-5-yl)piperidin-4-yl)acetyl)piperidin-4-yl)amino)-9H-purin-9-yl)cyclobutyl)-6-methylpicolinamide] | 90% | 80% | 70% | 90% | 90% | 10%
5 | Cc1cccc(C(=O)N[C@H]2C[C@H](n3cnc4c(NCC5CCN(CC6CCN(C(=O)CNc7cccc8c7C(=O)N(C7CCC(=O)NC7=O)C8=O)CC6)CC5)ncnc43)C2)n1 (stereo partly drawn) [Compound 75, N-((1r,3r)-3-(6-(((1-((1-((2-(2,6-dioxopiperidin-3-yl)-1,3-dioxoisoindolin-4-yl)glycyl)piperidin-4-yl)methyl)piperidin-4-yl)methyl)amino)-9H-purin-9-yl)cyclobutyl)-6-methylpicolinamide] | 20% | 10% | 30% | 0% | 0% | 10%
6 | Cc1cccc(C(=O)NC2CC(n3cnc4c(NCC5CCN(CC6CCN(c7ccc8c(c7)C(=O)N([C@@H]7CCC(=O)NC7=O)C8=O)CC6)CC5)ncnc43)C2)n1 (stereo partly drawn) [Compound 76, N-((1r,3r)-3-(6-(((1-((1-(2-(2,6-dioxopiperidin-3-yl)-1,3-dioxoisoindolin-5-yl)piperidin-4-yl)methyl)piperidin-4-yl)methyl)amino)-9H-purin-9-yl)cyclobutyl)-6-methylpicolinamide] | 100/100/100% | 100/100/100% | 100/100/100% | 30% | 20% | 10%
7 | Cc1cccc(C(=O)NC2CC(n3cnc4c(Nc5ccc(N6CCN(C(=O)COc7ccc8c(c7)C(=O)N([C@H]7CCC(=O)NC7=O)C8=O)CC6)cc5)ncnc43)C2)n1 (stereo partly drawn) [Compound 84, N-((1s,3s)-3-(6-((4-(4-(2-((2-(2,6-dioxopiperidin-3-yl)-1,3-dioxoisoindolin-5-yl)oxy)acetyl)piperazin-1-yl)phenyl)amino)-9H-purin-9-yl)cyclobutyl)-6-methylpicolinamide] | 50% | 30% | 20% | 70% | 30% | 10%
8 | Cc1cccc(C(=O)NC2CC(n3cnc4c(Nc5ccc(N6CCN(C(=O)COc7cccc8c7C(=O)N([C@H]7CCC(=O)NC7=O)C8=O)CC6)cc5)ncnc43)C2)n1 (stereo partly drawn) [Compound 85, N-((1s,3s)-3-(6-((4-(4-(2-((2-(2,6-dioxopiperidin-3-yl)-1,3-dioxoisoindolin-4-yl)oxy)acetyl)piperazin-1-yl)phenyl)amino)-9H-purin-9-yl)cyclobutyl)-6-methylpicolinamide] | 70% | 60% | 50% | 60% | 40% | 30%

Now from value to molecule:

Row | Enzyme degradation CDK2 (% remaining) @ 0.1 μM (CDK2) | Enzyme degradation CDK2 (% remaining) @ 1 μM (CDK2) | Enzyme degradation CDK2 (% remaining) @ 10 μM (CDK2) | Enzyme degradation CDK9 (% remaining) @ 0.1 μM (CDK9) | Enzyme degradation CDK9 (% remaining) @ 1 μM (CDK9) | Enzyme degradation CDK9 (% remaining) @ 10 μM (CDK9) | SMILES
9 | 90% | 70% | 50% | 50% | 50% | 40% | Cc1cccc(C(=O)N[C@H]2C[C@@H](n3cnc4c(Nc5ccc(N6CCN(C(=O)CNc7cccc8c7C(=O)N([C@H]7CCC(=O)NC7=O)C8=O)CC6)cc5)ncnc43)C2)n1 [Compound 87, N-((1s,3s)-3-(6-((4-(4-((2-(2,6-dioxopiperidin-3-yl)-1,3-dioxoisoindolin-4-yl)glycyl)piperazin-1-yl)phenyl)amino)-9H-purin-9-yl)cyclobutyl)-6-methylpicolinamide]
10 | 20/20/20% | 20/20/20% | 20/20/20% | 0/0/0% | 0/0/0% | 0/0/0% | Cc1cccc(C(=O)N[C@H]2C[C@@H](n3cnc4c(Nc5ccc(N6CCN(CC7CCN(c8ccc9c(c8)C(=O)N([C@H]8CCC(=O)NC8=O)C9=O)CC7)CC6)cc5)ncnc43)C2)n1 [Compound 88, N-((1s,3s)-3-(6-((4-(4-((1-(2-(2,6-dioxopiperidin-3-yl)-1,3-dioxoisoindolin-5-yl)piperidin-4-yl)methyl)piperazin-1-yl)phenyl)amino)-9H-purin-9-yl)cyclobutyl)-6-methylpicolinamide]
11 | 70% | 50% | 90% | 10% | 0% | 0% | Cc1cccc(C(=O)NC2CC(n3cnc4c(Nc5ccc(N6CCN(CC7CCN(c8cccc9c8C(=O)N([C@H]8CCC(=O)NC8=O)C9=O)CC7)CC6)cc5)ncnc43)C2)n1 (stereo partly drawn) [Compound 89, N-((1s,3s)-3-(6-((4-(4-((1-(2-(2,6-dioxopiperidin-3-yl)-1,3-dioxoisoindolin-4-yl)piperidin-4-yl)methyl)piperazin-1-yl)phenyl)amino)-9H-purin-9-yl)cyclobutyl)-6-methylpicolinamide]
12 | 40% | 20% | 10% | 0/0/0% | 0/0/0% | 0/0/0% | Cc1cccc(C(=O)N[C@H]2C[C@@H](n3cnc4c(Nc5ccc(N6CCN(CC7CCN(C(=O)COc8ccc9c(c8)C(=O)N([C@H]8CCC(=O)NC8=O)C9=O)CC7)CC6)cc5)ncnc43)C2)n1 [Compound 90, N-((1s,3s)-3-(6-((4-(4-((1-(2-((2-(2,6-dioxopiperidin-3-yl)-1,3-dioxoisoindolin-5-yl)oxy)acetyl)piperidin-4-yl)methyl)piperazin-1-yl)phenyl)amino)-9H-purin-9-yl)cyclobutyl)-6-methylpicolinamide]
